# Reference: article PMC12395308 (ACS Central Science, 2025)
# Tests used:
# [1] = Stomach homogenate conversion assay; assay type: in vitro ADME, mice; conditions: 50 μg/mL; for percentage of prodrug remaining after 20 h of incubation, stomach homogenate: ex vivo
# [2] = Intestinal homogenate conversion assay; assay type: in vitro ADME, mice; conditions: 50 μg/mL; for percentage of prodrug remaining after 20 h of incubation, intestine homogenate: ex vivo
# [3] = Lipophilicity (logD) by shake flask method
# [4] = Aqueous stability in acidic and basic buffer (HPLC); conditions: post 24 h of incubation; for chemical stability, pH (3.0): percentage of parent remaining: acidic buffer; for chemical stability, pH (7.6): percentage of parent remaining: basic buffer
# [5] = Bioconversion of prodrugs in plasma, ex vivo (mice); conditions: 200 μg/mL; for % of prodrug remaining at 20 h, mice plasma: 37 °C, ex vivo; for eAUC20m–20h in mice plasma, prodrug: 20 h ex vivo incubation
# [6] = Bioconversion of prodrugs in plasma, ex vivo (human); conditions: 200 μg/mL; for % of prodrug remaining at 20 h, human plasma: 37 °C, ex vivo; for eAUC20m–20h in human plasma, prodrug: 20 h ex vivo incubation
# [7] = Chemical stability in neat DMSO (UV spectrophotometer); conditions: post 24 h of incubation
# [8] = In vivo plasma exposure after a single oral dose (RACE-PK); conditions: single oral dose 10 mg/kg; for plasma eAUC20m–120m (AcINH) / plasma eAUC20m–120m (INH): n=3
# [9] = Complete pharmacokinetic analysis after a single oral dose; conditions: for concentration at 0.33 h / concentration at 1 h / concentration at 2 h / concentration at 4 h / concentration at 6 h / concentration at 24 h: Balb/C, mouse, plasma, po, 10 mg/kg of INH (prodrugs at molar equivalent); for plasma concentration of free INH (mean) / plasma concentration of released AcINH (mean) / plasma concentration of released INA (mean) / Vd, unchanged prodrug / plasma level of AcHz formed in vivo: single oral dose; for Vd, unchanged prodrug: molar equivalent of 10 mg/kg INH; for plasma level of AcHz formed in vivo: all time points 0.083–24 h
# [10] = Aqueous solubility in Tris HCl buffer (pH 7.4), shake flask method; conditions: 37 °C, pH 7.4, aqueous buffer, thermodynamic from solid
# [11] = In vivo plasma exposure after repetitive single oral dosing for 10 consecutive days; conditions: 10th dose, oral, molar equivalent of 10 mg/kg INH
smiles,measurement,setting,value
COC(=O)NNC(=O)c1ccncc1.Cl [prodrug 1a],"eAUC0–20h in stomach homogenate, prodrug",[1],"412,453 ng·h/mL"
same,"percentage of prodrug remaining after 20 h of incubation, stomach homogenate",[1],1%
same,"eAUC0–20h in intestinal homogenate, prodrug",[2],"908,764 ng·h/mL"
same,"percentage of prodrug remaining after 20 h of incubation, intestine homogenate",[2],85%
same,logD,[3],-0.2
same,"chemical stability, pH (3.0): percentage of parent remaining",[4],100.0%
same,"chemical stability, pH (7.6): percentage of parent remaining",[4],100.0%
same,"% of prodrug remaining at 20 h, mice plasma",[5],70.5%
same,"eAUC20m–20h in mice plasma, prodrug",[5],1650 ± 930 ng·h/mL
same,"% of prodrug remaining at 20 h, human plasma",[6],40.1%
same,"eAUC20m–20h in human plasma, prodrug",[6],1418 ± 824 ng·h/mL
same,"chemical stability, DMSO: percentage of parent remaining",[7],100.0%
same,plasma concentration of AcINH at 20 min,[8],BLQ
same,plasma concentration of in vivo released free INH at 20 min,[8],BLQ
same,plasma eAUC20m–120m (AcINH),[8],BLQ ^d
same,plasma eAUC20m–120m (INH),[8],BLQ ^d
same,concentration at 0.33 h,[9],148000 ng/mL
same,concentration at 1 h,[9],63200 ng/mL
same,concentration at 2 h,[9],31400 ng/mL
same,concentration at 4 h,[9],1400 ng/mL
same,concentration at 6 h,[9],571 ng/mL
same,concentration at 24 h,[9],208 ng/mL
same,plasma concentration of free INH (mean),[9]; 1 h,BLQ
same,plasma concentration of released AcINH (mean),[9]; 1 h,BLQ
same,plasma concentration of free INH (mean),[9]; 2 h,BLQ
same,plasma concentration of released AcINH (mean),[9]; 2 h,BLQ
same,plasma concentration of free INH (mean),[9]; 4 h,BLQ
same,plasma concentration of released AcINH (mean),[9]; 4 h,BLQ
same,plasma concentration of released INA (mean),[9]; 4 h,BLQ
same,plasma concentration of free INH (mean),[9]; 6 h,BLQ
same,plasma concentration of released AcINH (mean),[9]; 6 h,BLQ
same,plasma concentration of released INA (mean),[9]; 6 h,BLQ
same,plasma concentration of free INH (mean),[9]; 24 h,BLQ
same,plasma concentration of released AcINH (mean),[9]; 24 h,BLQ
same,plasma concentration of released INA (mean),[9]; 24 h,BLQ
same,"Vd, unchanged prodrug",[9],0.077 ± 0.004 L/kg
same,plasma level of AcHz formed in vivo,[9],BLQ
same,solubility at 24 h,[10]; Tris HCl buffer,213 mg/mL
same,eAUC20m–6h (AcHz),[11],BLQ ^d
CCOC(=O)NNC(=O)c1ccncc1.Cl [prodrug 1b],logD,[3],-0.01
same,"chemical stability, pH (7.6): percentage of parent remaining",[4],100.0%
same,"% of prodrug remaining at 20 h, mice plasma",[5],13.8%
same,"eAUC20m–20h in mice plasma, prodrug",[5],1214 ± 758 ng·h/mL
same,"% of prodrug remaining at 20 h, human plasma",[6],47.5%
same,"eAUC20m–20h in human plasma, prodrug",[6],1402 ± 957 ng·h/mL
same,"chemical stability, DMSO: percentage of parent remaining",[7],100.0%
same,plasma concentration of AcINH at 20 min,[8],BLQ
same,plasma eAUC20m–120m (AcINH),[8],BLQ ^d
same,solubility at 24 h,[10]; Tris HCl buffer,326 mg/mL
same,eAUC20m–6h (AcHz),[11],BLQ ^d
CCCOC(=O)NNC(=O)c1ccncc1.Cl [prodrug 1c],logD,[3],0.2
same,"chemical stability, pH (7.6): percentage of parent remaining",[4],100.0%
same,"eAUC20m–20h in mice plasma, prodrug",[5],551 ± 81 ng·h/mL
same,"eAUC20m–20h in human plasma, prodrug",[6],860 ± 131 ng·h/mL
same,"chemical stability, DMSO: percentage of parent remaining",[7],100.0%
same,plasma concentration of AcINH at 20 min,[8],BLQ
same,plasma concentration of in vivo released free INH at 20 min,[8],BLQ
same,plasma eAUC20m–120m (AcINH),[8],BLQ ^d
same,plasma eAUC20m–120m (INH),[8]; 10 mg/kg,BLQ and BLQ ^d
same,solubility at 24 h,[10]; Tris HCl buffer,86 mg/mL
same,eAUC20m–6h (AcHz),[11],BLQ ^d
CCCCOC(=O)NNC(=O)c1ccncc1.Cl [prodrug 1e],logD,[3],0.8
same,"chemical stability, pH (3.0): percentage of parent remaining",[4],100.0%
same,"chemical stability, pH (7.6): percentage of parent remaining",[4],100.0%
same,"eAUC20m–20h in mice plasma, prodrug",[5],180 ± 36 ng·h/mL
same,"eAUC20m–20h in human plasma, prodrug",[6],640 ± 116 ng·h/mL
same,"chemical stability, DMSO: percentage of parent remaining",[7],100.0%
same,solubility at 24 h,[10]; Tris HCl buffer,49.4 mg/mL
same,eAUC20m–6h (AcHz),[11],BLQ ^d
CC(C)COC(=O)NNC(=O)c1ccncc1.Cl [prodrug 1f],logD,[3],0.9
same,"chemical stability, pH (3.0): percentage of parent remaining",[4],98.17%
same,"chemical stability, pH (7.6): percentage of parent remaining",[4],100.0%
same,"% of prodrug remaining at 20 h, mice plasma",[5],13.2%
same,"eAUC20m–20h in mice plasma, prodrug",[5],382 ± 302 ng·h/mL
same,"eAUC20m–20h in human plasma, prodrug",[6],854 ± 615 ng·h/mL
same,"chemical stability, DMSO: percentage of parent remaining",[7],100.0%
same,solubility at 24 h,[10]; Tris HCl buffer,29.3 mg/mL
same,eAUC20m–6h (AcHz),[11],BLQ ^d
C=CCOC(=O)NNC(=O)c1ccncc1.Cl [prodrug 1g],logD,[3],0.2
same,"chemical stability, pH (3.0): percentage of parent remaining",[4],96.9%
same,"chemical stability, pH (7.6): percentage of parent remaining",[4],100.0%
same,"% of prodrug remaining at 20 h, mice plasma",[5],highly labile and BLQ
same,"eAUC20m–20h in mice plasma, prodrug",[5],168 ± 91 ng·h/mL
same,"% of prodrug remaining at 20 h, human plasma",[6],significant lability and BLQ
same,"eAUC20m–20h in human plasma, prodrug",[6],530 ± 316 ng·h/mL
same,"chemical stability, DMSO: percentage of parent remaining",[7],100.0%
same,solubility at 24 h,[10]; Tris HCl buffer,402 mg/mL
same,eAUC20m–6h (AcHz),[11],BLQ ^d
Cl.O=C(NNC(=O)c1ccncc1)OCc1ccccc1 [prodrug 1h],"eAUC0–20h in stomach homogenate, prodrug",[1],"691,560 ng·h/mL"
same,"percentage of prodrug remaining after 20 h of incubation, stomach homogenate",[1],29%
same,"eAUC0–20h in intestinal homogenate, prodrug",[2],"761,596 ng·h/mL"
same,"percentage of prodrug remaining after 20 h of incubation, intestine homogenate",[2],43%
same,logD,[3],1.1
same,"chemical stability, pH (3.0): percentage of parent remaining",[4],100.0%
same,"chemical stability, pH (7.6): percentage of parent remaining",[4],100.0%
same,"eAUC20m–20h in mice plasma, prodrug",[5],87 ± 85 ng·h/mL
same,"eAUC20m–20h in human plasma, prodrug",[6],465 ± 426 ng·h/mL
same,"chemical stability, DMSO: percentage of parent remaining",[7],100.0%
same,concentration at 0.33 h,[9],6130 ng/mL
same,concentration at 1 h,[9],433 ng/mL
same,concentration at 2 h,[9],409 ng/mL
same,concentration at 4 h,[9],884 ng/mL
same,concentration at 6 h,[9],128 ng/mL
same,concentration at 24 h,[9],120 ng/mL
same,plasma concentration of free INH (mean),[9]; 4 h,BLQ
same,plasma concentration of released AcINH (mean),[9]; 4 h,BLQ
same,plasma concentration of released INA (mean),[9]; 4 h,BLQ
same,plasma concentration of free INH (mean),[9]; 6 h,BLQ
same,plasma concentration of released AcINH (mean),[9]; 6 h,BLQ
same,plasma concentration of released INA (mean),[9]; 6 h,BLQ
same,plasma concentration of free INH (mean),[9]; 24 h,BLQ
same,plasma concentration of released AcINH (mean),[9]; 24 h,BLQ
same,plasma concentration of released INA (mean),[9]; 24 h,BLQ
same,"Vd, unchanged prodrug",[9],2.899 ± 0.3 L/kg
same,plasma level of AcHz formed in vivo,[9],BLQ
same,solubility at 24 h,[10]; Tris HCl buffer,0.4 mg/mL
same,eAUC20m–6h (AcHz),[11],BLQ ^d
CCC(C)OC(=O)NNC(=O)c1ccncc1.Cl (stereo not shown) [prodrug 1i],logD,[3],0.8
same,"chemical stability, pH (3.0): percentage of parent remaining",[4],100.0%
same,"chemical stability, pH (7.6): percentage of parent remaining",[4],98.3%
same,"% of prodrug remaining at 20 h, mice plasma",[5],63.8%
same,"eAUC20m–20h in mice plasma, prodrug",[5],1486 ± 35 ng·h/mL
same,"% of prodrug remaining at 20 h, human plasma",[6],89.1%
same,"eAUC20m–20h in human plasma, prodrug",[6],2788 ± 217 ng·h/mL
same,"chemical stability, DMSO: percentage of parent remaining",[7],100.0%
same,plasma concentration of AcINH at 20 min,[8],BLQ
same,plasma eAUC20m–120m (AcINH),[8]; 10 mg/kg,BLQ and below the limit of quantification and BLQ ^d
same,solubility at 24 h,[10]; Tris HCl buffer,111 mg/mL
Cl.O=C(NNC(=O)c1ccncc1)Oc1ccccc1 [prodrug 1j],logD,[3],0.9
same,"chemical stability, pH (3.0): percentage of parent remaining",[4],94.6%
same,"chemical stability, pH (7.6): percentage of parent remaining",[4],58.2%
same,"% of prodrug remaining at 20 h, mice plasma",[5],85.5%
same,"eAUC20m–20h in mice plasma, prodrug",[5],7347 ± 655 ng·h/mL
same,"% of prodrug remaining at 20 h, human plasma",[6],below the quantification limit and BLQ
same,"eAUC20m–20h in human plasma, prodrug",[6],752 ± 355 ng·h/mL
same,"chemical stability, DMSO: percentage of parent remaining",[7],100.0%
same,plasma concentration of AcINH at 20 min,[8],BLQ
same,plasma eAUC20m–120m (AcINH),[8],BLQ ^d
same,solubility at 24 h,[10],12.4 mg/mL
